Data taken from the supplement of paper PMC7661543.
± gives the standard deviation of the averaged measurements.

Columns and labels:
Test in all cases: relative cell number vs DMSO control (72 h) (% of DMSO); higher = less growth inhibition (more cells)
Settings in all cases: sgRNA knockout: sgNT
HCC-38 = system: HCC-38
Protocol: (§1)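 QMAP-Seq: a pool of 5 breast cancer cell lines (ZR-75-1, SKBR3, HCC-38, MDA-MB-231, BT-20), each carrying 12 doxycycline-inducible Cas9 sgRNA perturbations (11 knockouts plus non-targeting sgNT), was treated with compounds for 72 h at four 10-fold doses (10 nM-10 uM or 1 nM-1 uM range). Barcodes were amplified and sequenced, and cell number was interpolated from 293T spike-in standard curves. The result is expressed as % of the median of DMSO wells. Two biological replicates.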

ZR-75-1 = system: ZR-75-1
Protocol: as §1

MDA-MB-231 = system: MDA-MB-231
Protocol: as §1

SKBR3 = system: SKBR3
Protocol: as §1

BT-20 = system: BT-20
Protocol: as §1

| SMILES | relative cell number (HCC-38; 10 nM) | relative cell number (HCC-38; 100 nM) | relative cell number (HCC-38; 1000 nM) | relative cell number (HCC-38; 10000 nM) | relative cell number (ZR-75-1; 10 nM) | relative cell number (ZR-75-1; 100 nM) | relative cell number (ZR-75-1; 1000 nM) | relative cell number (ZR-75-1; 10000 nM) | relative cell number (MDA-MB-231; 10 nM) | relative cell number (MDA-MB-231; 100 nM) | relative cell number (MDA-MB-231; 1000 nM) | relative cell number (MDA-MB-231; 10000 nM) | relative cell number (SKBR3; 10 nM) | relative cell number (SKBR3; 100 nM) | relative cell number (SKBR3; 1000 nM) | relative cell number (SKBR3; 10000 nM) | relative cell number (BT-20; 10 nM) | relative cell number (BT-20; 100 nM) | relative cell number (BT-20; 1000 nM) | relative cell number (BT-20; 10000 nM) | relative cell number (HCC-38; 1 nM) | relative cell number (ZR-75-1; 1 nM) | relative cell number (MDA-MB-231; 1 nM) | relative cell number (SKBR3; 1 nM) | relative cell number (BT-20; 1 nM) |
| --- | --- | --- | --- | --- | --- | --- | --- | --- | --- | --- | --- | --- | --- | --- | --- | --- | --- | --- | --- | --- | --- | --- | --- | --- | --- |
| CN(C)C/C=C/C(=O)Nc1cc2c(Nc3ccc(F)c(Cl)c3)ncnc2cc1O[C@H]1CCOC1 [Afatinib] | 94.6 ± 18 | 101 ± 22 | 75.7 ± 7.1 | 21.2 ± 1.6 | 103 ± 7.7 | 72.2 ± 40 | 68.8 ± 6.8 | 13 ± 0.97 | 151 ± 15 | 77.1 ± 36 | 93.9 ± 5.5 | 15.6 ± 3.4 | 85.2 ± 6.7 | 34.5 ± 13 | 18.7 ± 0.37 | 10.8 ± 1.1 | 117 ± 13 | 66.9 ± 10 | 82.8 ± 8.8 | 20.2 ± 4.5 |  |  |  |  |  |
| CN(C)c1cc(NC(=O)CNC(C)(C)C)c(O)c2c1C[C@H]1C[C@H]3[C@H](N(C)C)C(O)=C(C(N)=O)C(=O)[C@@]3(O)C(O)=C1C2=O [Tigecycline] | 87.5 ± 6.1 | 107 ± 30 | 88.8 ± 2.6 | 102 ± 6.5 | 91.5 ± 11 | 96.2 ± 29 | 123 ± 24 | 90.1 ± 21 | 117 ± 16 | 92.1 ± 21 | 123 ± 18 | 83 ± 9.6 | 92.5 ± 19 | 69.1 ± 4.5 | 104 ± 33 | 65.6 ± 5.3 | 104 ± 12 | 97.4 ± 4.4 | 112 ± 24 | 118 ± 3.6 |  |  |  |  |  |
| COC(=O)[C@]12CCC(C)(C)C[C@H]1[C@H]1C(=O)C=C3[C@@]4(C)C=C(C#N)C(=O)C(C)(C)[C@@H]4CC[C@@]3(C)[C@]1(C)CC2 [BardoxoloneMethyl] | 96 ± 7.2 | 99.93 ± 0.61 | 26.6 ± 3.4 | 5.24 ± 0.59 | 74.7 ± 11 | 49.3 ± 14 | 14.3 ± 2.1 | 5.42 ± 4.3 | 109 ± 22 | 66.5 ± 37 | 16.4 ± 11 | 5.3 ± 1.9 | 100.4 ± 0.77 | 66.6 ± 13 | 7.42 ± 0.66 | 4.14 ± 0.45 | 73.5 ± 19 | 66.2 ± 6.3 | 16.2 ± 4 | 4.97 ± 2.9 |  |  |  |  |  |
| CC(C)C[C@H](NC(=O)[C@H](CCc1ccccc1)NC(=O)CN1CCOCC1)C(=O)N[C@@H](Cc1ccccc1)C(=O)N[C@@H](CC(C)C)C(=O)[C@@]1(C)CO1 [Carfilzomib] | 31.4 ± 4.7 | 8.48 ± 4 | 4.65 ± 0.23 |  | 89.9 ± 9.1 | 22.8 ± 13 | 7.73 ± 3.8 |  | 91 ± 32 | 37.8 ± 22 | 18.7 ± 5.8 |  | 33.5 ± 8.4 | 11.2 ± 8.9 | 7.64 ± 5.5 |  | 80.32 ± 0.3 | 21.4 ± 4.5 | 14.6 ± 1.8 |  | 76.3 ± 6.3 | 73.3 ± 12 | 83.2 ± 3.2 | 58.5 ± 9.1 | 80.9 ± 18 |
| Cc1cnc(-c2cnc(NCCNc3ccc(C#N)cn3)nc2-c2ccc(Cl)cc2Cl)[nH]1 | 98.4 ± 21 | 89.08 ± 0.19 | 104 ± 2.4 | 126.9 ± 0.6 | 104 ± 21 | 85.3 ± 13 | 66.2 ± 15 | 77.1 ± 10 | 88.2 ± 11 | 92.2 ± 8.4 | 79.9 ± 25 | 72.7 ± 21 | 99.6 ± 12 | 91.2 ± 2.6 | 73.7 ± 18 | 85.9 ± 40 | 110 ± 4.5 | 103 ± 19 | 73.6 ± 3.6 | 106 ± 22 |  |  |  |  |  |
| C=CCn1c(=O)c2cnc(Nc3ccc(N4CCN(C)CC4)cc3)nc2n1-c1cccc(C(C)(C)O)n1 [MK1775] | 97.2 ± 20 | 76.6 ± 6.7 | 35.3 ± 2.2 | 29.548 ± 0.018 | 138 ± 30 | 77.7 ± 43 | 51.7 ± 24 | 15.6 ± 6 | 81.5 ± 35 | 74 ± 8 | 20.3 ± 8 | 13.8 ± 6.6 | 112 ± 1.2 | 108 ± 18 | 29.8 ± 14 | 14.7 ± 1.8 | 95.2 ± 12 | 84.17 ± 0.44 | 42.9 ± 2.7 | 31.7 ± 1.8 |  |  |  |  |  |
| COc1nc(N)nc2c1ncn2[C@@H]1O[C@H](CO)[C@@H](O)[C@@H]1O [Nelarabine] | 113 ± 3.4 | 96.7 ± 16 | 99 ± 21 | 109 ± 4.1 | 85.5 ± 33 | 74.6 ± 23 | 81.7 ± 5.5 | 109 ± 7.7 | 82 ± 19 | 95.5 ± 4.6 | 104 ± 23 | 72 ± 26 | 100 ± 31 | 85.8 ± 2.9 | 101 ± 6.9 | 91.7 ± 4.2 | 90.5 ± 4.3 | 85.5 ± 1.7 | 94.9 ± 26 | 98 ± 15 |  |  |  |  |  |
| CC[C@H](C)C(=O)O[C@H]1C[C@@H](C)C=C2C=C[C@H](C)[C@H](CC[C@@H]3C[C@@H](O)CC(=O)O3)[C@H]21 [Lovastatin] | 96.5 ± 11 | 85.9 ± 6.2 | 102 ± 22 | 73.4 ± 13 | 138 ± 33 | 67.2 ± 6.6 | 100.5 ± 0.94 | 88.2 ± 6.5 | 112 ± 28 | 52.2 ± 31 | 83 ± 29 | 15.7 ± 6.2 | 103 ± 22 | 81.1 ± 12 | 93.1 ± 11 | 78.4 ± 22 | 114 ± 20 | 78.7 ± 11 | 89.9 ± 35 | 78.8 ± 12 |  |  |  |  |  |
| C[C@@H](Nc1cc(F)cc(F)c1)c1cc(C(=O)N(C)C)cc2c(=O)cc(N3CCOCC3)oc12 [AZD8186] | 97.9 ± 24 | 105 ± 19 | 86.8 ± 7.5 | 79.5 ± 7.5 | 91.2 ± 19 | 103 ± 1.3 | 66.4 ± 4 | 49.1 ± 22 | 109 ± 3.1 | 134 ± 21 | 130 ± 80 | 83.4 ± 28 | 88.2 ± 0.97 | 103 ± 18 | 94.2 ± 6.8 | 59.6 ± 10 | 103 ± 9.9 | 117 ± 3.5 | 107 ± 23 | 98.3 ± 1.2 |  |  |  |  |  |
| CS(=O)(=O)CCNCc1ccc(-c2ccc3ncnc(Nc4ccc(OCc5cccc(F)c5)c(Cl)c4)c3c2)o1 [Lapatinib] | 97.5 ± 7 | 87 ± 6.9 | 89.7 ± 7.5 | 60.2 ± 1.2 | 112 ± 32 | 63.6 ± 13 | 86.8 ± 17 | 33.4 ± 10 | 120 ± 15 | 90 ± 36 | 83.6 ± 3 | 38.2 ± 8.8 | 77.6 ± 11 | 73.9 ± 0.55 | 64.9 ± 19 | 16.3 ± 2.1 | 96.3 ± 16 | 84.7 ± 12 | 78.7 ± 9.5 | 77 ± 4.7 |  |  |  |  |  |
